In BigSolDB 2.1:

CP(=O)(c1ccccc1)c1ccccc1
Conditions	solubility (mole fraction)
in benzene, 288.52 K	0.0439
in benzene, 293.56 K	0.0573
in benzene, 298.13 K	0.0698
in benzene, 303.21 K	0.0875
in benzene, 308.12 K	0.102
in benzene, 312.55 K	0.123
in benzene, 318.04 K	0.156
in benzene, 323.17 K	0.183
in ethyl acetate, 293.25 K	0.0415
in ethyl acetate, 298.46 K	0.0497
in ethyl acetate, 302.88 K	0.0618
in ethyl acetate, 307.97 K	0.0744
in ethyl acetate, 313.22 K	0.0885
in ethyl acetate, 317.25 K	0.104
in ethyl acetate, 322.14 K	0.128
in ethyl acetate, 326.93 K	0.15
in ethylbenzene, 293.35 K	0.0183
in ethylbenzene, 298.04 K	0.0224
in ethylbenzene, 303.12 K	0.0304
in ethylbenzene, 308.33 K	0.0393
in ethylbenzene, 312.8 K	0.0464
in ethylbenzene, 317.51 K	0.061
in ethylbenzene, 321.25 K	0.0719
in ethylbenzene, 326.39 K	0.0876
in m-xylene, 293.75 K	0.0129
in m-xylene, 298.16 K	0.0167
in m-xylene, 303.32 K	0.0216
in m-xylene, 307.41 K	0.0258
in m-xylene, 313 K	0.0332
in m-xylene, 317.53 K	0.0398
in m-xylene, 320.55 K	0.0453
in m-xylene, 326.39 K	0.0614
in o-xylene, 293.35 K	0.0281
in o-xylene, 298.08 K	0.0343
in o-xylene, 303.11 K	0.0406
in o-xylene, 308.23 K	0.0454
in o-xylene, 313.09 K	0.0525
in o-xylene, 317.05 K	0.0603
in o-xylene, 321.94 K	0.071
in o-xylene, 328.07 K	0.0821
in p-xylene, 293.65 K	0.0131
in p-xylene, 298.19 K	0.0175
in p-xylene, 303.31 K	0.0219
in p-xylene, 308.42 K	0.03
in p-xylene, 313.11 K	0.036
in p-xylene, 317.38 K	0.0442
in p-xylene, 320.55 K	0.0539
in p-xylene, 326.44 K	0.0679
in toluene, 293.35 K	0.0227
in toluene, 298.16 K	0.0287
in toluene, 303.08 K	0.0386
in toluene, 307.11 K	0.0498
in toluene, 312.12 K	0.065
in toluene, 316.4 K	0.0798
in toluene, 320.95 K	0.0979
in toluene, 326.54 K	0.135
